Source: US20080058210A1, “Method of isolating shikimic acid from a plant” (priority 2006, published 2008)

Tested on: Express spring wheat
Assay: Field trial plots with glyphosate on Express spring wheat; shikimic acid in whole above ground plant by water extraction and HPLC
Format: in vivo
Procedure: Field trial plots with glyphosate on Express spring wheat were established at three treatment levels, untreated control, 4 oz formulated/acre, and 14 oz formulated/acre. Field site studies were conducted in eastern Washington, near Kennewick, Wash. There were buffer zones around each treat level and control plot. The whole above ground plant was harvested at time zero, 5, 10, 15, and 20 days after application. The samples were cooled immediately and frozen within one hour. The samples were received from the field and stored in the freezer at <−10 C. At the time of application plants were 8-10 inches tall, after 20 days the control plants were 20-24 inches and beginning to head out.
Plant tissue was placed in an open container and dried at ca. 70 C overnight (14 to 16 hrs). Each sample was ground to pass through a 20 mesh screen. The ground sample was placed in a glass jar. Sealed samples may be stored at ≦−10 C for several months (the longest time tested). Approximately 150 mg of dry ground sample weight was placed into a screw cap bottle, 30 mL of DI water was added, and the bottle was capped and placed on a shaker overnight (14 to 16 hrs) at a minimum of 50 rpm. Extracts were filtered through a Whatman GF/A filter. For quantification, an aliquot was filtered (0.45 μm disposable) into an HPLC auto-sampler vial.
HPLC analysis was performed on a Perkin-Elmer ISS 200. Instrument conditions were as follows: column 250×4.6 mm ALTEX Ultrasphere 5 μm ODS (or equivalent);mobile phase (isocratic) 50 mM KH2PO4 solution adjusted to pH 2.4; flow rate 2 mL/min, detector 214 nm. Calibration curves consisted of 1, 5, 10, 50, 100 and 200 μg/mL standards, r^2 values were ≧0.998. Retention time was ca. 2.0 min.

SMILES: O=C(O)CNCP(=O)(O)O [glyphosate]
- shikimic acid level, factor above normal (higher treat rate 14 oz formulated/acre, day-5): 6
- shikimic acid level, factor above normal (higher treat rate 14 oz formulated/acre, day-10): 10
- shikimic acid level relative to normal (higher treat rate 14 oz formulated/acre, through the study period of 20 days): remains elevated
- shikimic acid level relative to normal (low treat rate 4 oz formulated/acre, day 20): within normal levels
- shikimic acid level, factor above normal (low treat rate 4 oz formulated/acre, day-5 sampling): 4
- shikimic acid level, factor above normal (low treat rate 4 oz formulated/acre, day-10): 2
- shikimic acid level relative to normal (low treat rate 4 oz formulated/acre, day-15): nearly within normal range
